One may read the IC50 as the midpoint of a concentration-inhibition curve.

Consider one substance from patent US20150080559A1, “Compositions Containing, Methods Involving, and Uses of Non-Natural Amino Acid Linked Dolastatin Derivatives” (priority 2011, published 2015).

One experiment has as its system HCC1954. Kind of experiment: In vitro inhibition of proliferation assay (WST-8), HCC1954. The experiment is classed as cell-based, human. As to conditions: 72 hr, read-out: IC50 Values after 72 hr drug treatment, HCC1954. The procedure: (§1) At day 1, the cells were seeded. The media was aspirated and the T-225 culture flasks of cells was rinsed with 30 mL PBS −/. PBS was aspirated and 6 mL of 0.25% Trypsin-EDTA was added to each flask. The flasks were incubated at 37C, 5% CO2 for 2-5 minutes. Adherent cells were dislodged by hitting flask and trypsin was neutralized by adding 14 mL culture medium. The cell suspension was mixed and transferred to a 50 mL conical tube. The cells were spun down at 1200 rpm, 5 min, room temperature. The resultant cell pellet was resuspended in 12 mL of culture medium. The cells were counted in a hemacytometer. Cells were seeded at appropriate cell densities into 96-well flat-bottom, clear plates and incubated overnight at 37° C., 5% CO2 to allow cells to attach. Plating volume was 80 uL/well. 80 uL/well of culture medium was utilized as the “no cell” control.
(§2) Cell plating density examples include: • BT474 (high Her2)—20,000 cells/well in F12k/DMEM (50/50), 10% FBS, P/S • MDA-MB-468 (Her2 negative)—6,000 cells/well in F12k/DMEM (50/50), 10% FBS, P/S • HCC1954—5,000 cells/well in RPMI 1640, 10% FBS, P/S • SKOV-3—6,000 cells/well in RPMI 1640, 10% FBS, P/S • HT29—20,000 cells/well in McCoy's 5A, 10% FBS, P/S
(§3) At day 2, the test samples were added to the cells. […]
(§4) At day 5, proliferation readout occurred. […] The plates were measured for absorbance at OD 450 nm. […]
Background: Formazan colour is commonly taken as a measure of viable cells.

The subject of a further experiment is ZR-75-30. Kind of experiment: In vitro inhibition of proliferation assay (WST-8), ZR-75-30. The experiment is classed as cell-based. As to conditions: Data Set I, experiment Sep. 4, 2010; 72 hr; read-out: IC50 Values after 72 hr drug treatment, ZR-75-30. Here is the method:
as §1
(§5) At day 2, the test samples were added to the cells. The test samples were diluted in culture medium to a 9× stock concentration in Column 2 of a round-bottom 96-well plate. 3× serial dilutions were made from Column 2 to Column 11 with a multi-channel pipettor. 10 uL/well of the above samples was added in duplicate to the appropriate wells of the seeded plate. The total volume in the wells was about 90 uL/well. […]
as §4

The next experiment has as its system SKOV-3. The experiment is described as follows: In vitro inhibition of proliferation assay (WST-8), SKOV-3. As to conditions: 72 hr, read-out: IC50 Values after 72 hr drug treatment, SKOV-3. The experiment is classed as cell-based. Here is the method:
as §1, §2
(§6) At day 2, the test samples were added to the cells. The test samples were diluted in culture medium to a 9× stock concentration in Column 2 of a round-bottom 96-well plate. 3× serial dilutions were made from Column 2 to Column 11 with a multi-channel pipettor. 10 uL/well of the above samples was added in duplicate to the appropriate wells of the seeded plate. The total volume in the wells was about 90 uL/well. 10 uL/well of culture medium was added to avoid edge effects for sample wells. Media Control wells were included in the inner wells where no sample was added (just 10 uL/well of culture medium) to be used in proliferation calculations. The plates were incubated at 37° C., 5% CO2 for 72 hrs.
as §4

The subject of the next experiment is HT29. The experiment is described as follows: In vitro inhibition of proliferation assay (WST-8), HT29. The experiment is classed as cell-based. As to conditions: Data Set II, experiment Sep. 24, 2010; 72 hr; read-out: IC50 Values after 72 hr drug treatment, HT29. Here is the method: as §1, §2, §3, §4
The test system of the next experiment is NCI-N87. Kind of experiment: In vitro inhibition of proliferation assay (WST-8), NCI-N87. Format: cell-based. The conditions noted are these: Data Set I, experiment Sep. 4, 2010; 72 hr; read-out: IC50 Values after 72 hr drug treatment, NCI-N87. The procedure: as §1, §5, §4
For the next experiment, the system named is BT474. The experiment is described as follows: In vitro inhibition of proliferation assay (WST-8), BT474. The experiment is classed as cell-based. As to conditions: 72 hr, read-out: IC50 Values after 72 hr drug treatment, BT474. Here is the method:
as §1, §2, §6, §4

In another experiment the test system is LS513. Kind of experiment: In vitro inhibition of proliferation assay (WST-8), LS513. Format: cell-based. The conditions noted are these: Data Set I, experiment Sep. 4, 2010; 72 hr; read-out: IC50 Values after 72 hr drug treatment, LS513. The procedure: as §1, §5, §4
For another experiment, the system named is MDA-MB-175. Kind of experiment: In vitro inhibition of proliferation assay (WST-8), MDA-MB-175. The experiment is classed as cell-based. The conditions noted are these: Data Set I, experiment Sep. 13, 2010. Here is the method: as §1, §5, §4
For a further experiment, the system named is MDA-MB-468. The experiment is described as follows: In vitro inhibition of proliferation assay (WST-8), MDA-MB-468. Format: cell-based. As to conditions: Data Set II, experiment Oct. 8, 2010; 72 hr; read-out: IC50 Values after 72 hr drug treatment, MDA-MB-468. Here is the method: as §1, §2, §3, §4
Setting [1] is: Data Set I, experiment Sep. 4, 2010.
[2] abbreviates: Data Set II, experiment Oct. 8, 2010.
[3] abbreviates: Data Set I, experiment Sep. 13, 2010.

Read-outs that look alike come from different tables or passages of the source.

On to Dolastatin, for which the half-inhibitory concentration (IC50) with HCC1954 (setting [1]) is 0.06 nM; in the experiment with HCC1954 (setting [2]), 0.04 nM; in the experiment with ZR-75-30, over 30 nM; in the experiment on SKOV-3 (setting [1]), 0.2 nM; in the experiment with SKOV-3 (setting [3]) it was 0.1 nM; in the experiment on SKOV-3 (setting [2]), 0.2 nM. For the same substance, the IC50 in the experiment with HT29 was 4 nM; in the experiment with NCI-N87 it was over 30 nM; with BT474 (setting [1]), 0.1 nM; with BT474 (setting [3]), 0.1 nM; in the experiment on BT474 (Data Set II, experiment Sep. 24, 2010), 2.5 nM; in the experiment with LS513 it was 0.2 nM. Besides, in the experiment with MDA-MB-468, the IC50 was under 0.01 nM. In the experiment on MDA-MB-175, the “IC50 Values after 72 hr drug treatment, MDA-MB-175” value is recorded as “no fit”.
